For 36 molecules, CC50, Activity and EC50 results are on record in ChEMBL document CHEMBL5120914, “An O-Benzyl Phosphonamidate Prodrug of Tenofovir for the Treatment of Hepatitis B Virus Infection” (J Med Chem, 2022).

The nature of data set [1]: Cytotoxicity against human HepG2 cells assessed as reduction in cell growth incubated for 3 days by MTT assay. The format is toxicity, cell-based. To be noted: time 3 day.
The test system of data set [2] is Hepatitis B virus. In words: Antiviral activity against Hepatitis B virus infected in human HepG2.2.15 cells assessed as inhibition of viral DNA replication at 1 uM measured after 6 days by FQ-PCR analysis relative to control. The class given is functional, HepG2 2.2.15. More on the design: scale not given: the % may be the effect or the level left. To be noted: time 6 day.

Data set [3] deals with Hepatitis B virus. In words: Antiviral activity against Hepatitis B virus infected in human HepG2.2.15 cells assessed as inhibition of viral DNA replication measured for 9 days by FQ-PCR analysis. To be noted: HepG2 2.2.15, 216 h. The format is functional, organism-based.
For data set [4], the system named is Hepatitis B virus. In words: Antiviral activity against Hepatitis B virus infected in human HepG2.2.15 cells assessed as inhibition of viral DNA replication at 20 uM measured after 6 days by FQ-PCR analysis relative to control. More on the design: scale not given: the % may be the effect or the level left. To be noted: time 6 day. The format is functional, HepG2 2.2.15.

The subject of another data set is HepG2. In words: Cytotoxicity against human HepG2 cells assessed as reduction in cell growth upto 500 uM incubated for 3 days by MTT assay. The format is toxicity, cell-based. To be noted: hepg2, 72 h, time 3 day.
Data set [5] deals with Hepatitis B virus. In words: Antiviral activity against Hepatitis B virus infected in ig dosed duck assessed as reduction in viral DNA replication in liver administered once daily for first 10 days followed by increase in dose administered for another 18 days. The format is functional, organism-based. To be noted: dose 10-40 mg/kg, time 28.0 day, DDE = dose-dependent effect.

What is called CC50 is the concentration at which the toxic effect on the cells reaches its halfway point. As usually defined, the EC50 is the concentration at which the effect is half-maximal.

Turning to `Cc1ccccc1COP(=O)(CO[C@H](C)Cn1cnc2c(N)ncnc21)NCC(=O)OC(C)C` (stereo not given in full), the CC50 at 72 h in data set [1] is over 500 µM.

In the case of `CC(C)OC(=O)[C@H](C)NP(=O)(CO[C@H](C)Cn1cnc2c(N)ncnc21)OCc1ccccc1Cl` (stereo not given in full), the Activity with Hepatitis B virus [2] stood at 42.6%. Further, the CC50 at 72 h in data set [1] was over 500 µM.

On to `COc1ccc(COP(=O)(CO[C@H](C)Cn2cnc3c(N)ncnc32)N[C@@H](C)C(=O)OC(C)C)cc1` (stereo not given in full), for which the Activity in the data set with Hepatitis B virus [2] was determined as 41.64%. In addition, the CC50 at 72 h in data set [1] is over 500 µM.

For the molecule `CC(C)OC(=O)[C@H](C)NP(=O)(CO[C@H](C)Cn1cnc2c(N)ncnc21)OCc1ccc(F)cc1` (stereo not given in full), the Activity with Hepatitis B virus [2] is recorded as 43.65%. The CC50 at 72 h in data set [1] is over 500 µM.

Turning to `CC(C)OC(=O)[C@H](C)NP(=O)(CO[C@H](C)Cn1cnc2c(N)ncnc21)OCc1cccc(Cl)c1` (stereo not given in full), the Activity with Hepatitis B virus [2] is reported as 73.95%. The CC50 at 72 h in data set [1] is over 500 µM. The EC50 with Hepatitis B virus [3] is 0.047 µM.

In the case of `CC(C)OC(=O)[C@H](C)NP(=O)(CO[C@H](C)Cn1cnc2c(N)ncnc21)OCc1cccc(C(F)(F)F)c1` (stereo not given in full), the Activity in the data set with Hepatitis B virus [2] is given as 35.34%. Further, in data set [1], the CC50 at 72 h was over 500 µM.

Turning to `Nc1ccn([C@@H]2CS[C@H](CO)O2)c(=O)n1` [LAMIVUDINE], the CC50 at 72 h in data set [1] was over 500 µM. Further, the Activity in the data set on Hepatitis B virus [4] is on record as 77.32%.

On to `COc1cccc(COP(=O)(CO[C@H](C)Cn2cnc3c(N)ncnc32)N[C@@H](C)C(=O)OC(C)C)c1` (stereo not given in full), for which the Activity in the data set with Hepatitis B virus [2] was 46.33%. Besides, the CC50 at 72 h in data set [1] is over 500 µM.

For the molecule `CC(C)OC(=O)[C@H](C)NP(=O)(CO[C@H](C)Cn1cnc2c(N)ncnc21)OCc1ccccc1[N+](=O)[O-]` (stereo not given in full), in the data set on Hepatitis B virus [2], the Activity was 79.74%. In addition, in data set [1], the CC50 at 72 h was over 500 µM. The EC50 with Hepatitis B virus [3] turned out to be 0.078 µM.

`Cc1ccccc1COP(=O)(CO[C@H](C)Cn1cnc2c(N)ncnc21)N[C@@H](C)C(=O)OCC(C)(C)C` (stereo not given in full): the Activity in the data set with Hepatitis B virus [2] worked out at 35.22%. Also, the CC50 at 72 h in data set [1] was over 500 µM.

Turning to `CC(C)OC(=O)[C@H](C)NP(=O)(CO[C@H](C)Cn1cnc2c(N)ncnc21)OCc1ccccc1` (stereo not given in full), the Activity in the data set with Hepatitis B virus [2] stood at 47.14%. For the same molecule, in data set [1], the CC50 at 72 h is over 500 µM.

As for `Cc1ccccc1COP(=O)(CO[C@H](C)Cn1cnc2c(N)ncnc21)N[C@@H](C)C(=O)OC(C)C` (stereo in doubt; 1a-2), the Activity in the data set with Hepatitis B virus [2] (144 h, 1 µM) came out at 85.4%.

As to `COc1ccccc1COP(=O)(CO[C@H](C)Cn1cnc2c(N)ncnc21)N[C@@H](C)C(=O)OC(C)C` (stereo not given in full), the Activity in the data set on Hepatitis B virus [2] amounted to 53.33%. Further, in data set [1], the CC50 at 72 h was over 500 µM.

As to `CC(C)OC(=O)[C@H](C)NP(=O)(CO[C@H](C)Cn1cnc2c(N)ncnc21)OCc1cccc(Br)c1` (stereo not given in full), the Activity in the data set with Hepatitis B virus [2] is 31.94%. In data set [1], the CC50 at 72 h was over 500 µM.

For the molecule `CCCOC(=O)[C@H](C)NP(=O)(CO[C@H](C)Cn1cnc2c(N)ncnc21)OCc1ccccc1C` (stereo not given in full), the Activity in the data set on Hepatitis B virus [2] is on record as 14.35%. Moreover, the CC50 at 72 h in data set [1] is over 500 µM.

Regarding `CC(C)OC(=O)[C@H](C)NP(=O)(CO[C@H](C)Cn1cnc2c(N)ncnc21)OCc1ccc([N+](=O)[O-])cc1` (stereo not given in full), the Activity in the data set with Hepatitis B virus [2] is given as 22.15%. Besides, the CC50 at 72 h in data set [1] was over 500 µM.

For `Cc1ccccc1COP(=O)(CO[C@H](C)Cn1cnc2c(N)ncnc21)N[C@@H](Cc1ccccc1)C(=O)OC(C)C` (stereo not given in full), in the data set on Hepatitis B virus [2], the Activity is on record as 63.8%. Besides, in data set [1], the CC50 at 72 h was over 500 µM. The EC50 in the data set with Hepatitis B virus [3] turned out to be 0.49 µM.

In the case of `Cc1ccccc1COP(=O)(CO[C@H](C)Cn1cnc2c(N)ncnc21)N[C@@H](C)C(=O)OC(C)C` (stereo in doubt; 1a-1), the Activity with Hepatitis B virus [2] (144 h, 1 µM) is 62.5%; in the data set on HepG2, “Non-Toxic”.

Regarding `CC(C)OC(=O)[C@H](C)NP(=O)(CO[C@H](C)Cn1cnc2c(N)ncnc21)OCc1ccc(Cl)cc1` (stereo not given in full), the Activity in the data set with Hepatitis B virus [2] was 67.85%. Also, the CC50 at 72 h in data set [1] is over 500 µM. Further, in the data set with Hepatitis B virus [3], the EC50 is 0.145 µM.

`Cc1ccccc1COP(=O)(CO[C@H](C)Cn1cnc2c(N)ncnc21)N[C@@H](C)C(=O)OCC(C)C` (stereo not given in full): in the data set on Hepatitis B virus [2], the Activity was 25.78%. Besides, the CC50 at 72 h in data set [1] was over 500 µM.

For the molecule `Cc1ccc(COP(=O)(CO[C@H](C)Cn2cnc3c(N)ncnc32)N[C@@H](C)C(=O)OC(C)C)cc1` (stereo not given in full), the Activity in the data set on Hepatitis B virus [2] came to 65.32%. For the same molecule, in data set [1], the CC50 at 72 h was over 500 µM. For the same molecule, in the data set with Hepatitis B virus [3], the EC50 was found to be 0.186 µM.

In the case of `Cc1ccccc1COP(=O)(CO[C@H](C)Cn1cnc2c(N)ncnc21)N[C@@H](C)C(=O)OC1CCCCC1` (stereo not given in full), the Activity with Hepatitis B virus [2] turned out to be 21.46%. In data set [1], the CC50 at 72 h is over 500 µM.

With `CC(C)OC(=O)[C@H](C)NP(=O)(CO[C@H](C)Cn1cnc2c(N)ncnc21)OCc1ccccc1F` (stereo not given in full), the Activity in the data set with Hepatitis B virus [2] was 66.36%. Besides, the CC50 at 72 h in data set [1] is over 500 µM. For the same molecule, the EC50 in the data set on Hepatitis B virus [3] came out at 0.029 µM.

For `CC(C)OC(=O)[C@H](C)NP(=O)(CO[C@H](C)Cn1cnc2c(N)ncnc21)OCc1ccc(C(F)(F)F)cc1` (stereo not given in full), the Activity in the data set on Hepatitis B virus [2] was 63.45%. Further, the CC50 at 72 h in data set [1] is over 500 µM. Also, the 50% effective concentration (EC50) in the data set with Hepatitis B virus [3] amounted to 0.147 µM.

On to `Cc1cccc(COP(=O)(CO[C@H](C)Cn2cnc3c(N)ncnc32)N[C@@H](C)C(=O)OC(C)C)c1` (stereo not given in full), for which the Activity in the data set on Hepatitis B virus [2] was determined as 69.34%. Moreover, the CC50 at 72 h in data set [1] is over 500 µM. For the same molecule, in the data set on Hepatitis B virus [3], the EC50 is 0.181 µM.

For the molecule `CC(C)OC(=O)[C@H](C)NP(=O)(CO[C@H](C)Cn1cnc2c(N)ncnc21)OCc1cccc([N+](=O)[O-])c1` (stereo not given in full), the Activity in the data set on Hepatitis B virus [2] is recorded as 34.63%. Further, the CC50 at 72 h in data set [1] was over 500 µM.

On to `CCOC(=O)[C@H](C)NP(=O)(CO[C@H](C)Cn1cnc2c(N)ncnc21)OCc1ccccc1C` (stereo not given in full), for which, in the data set with Hepatitis B virus [2], the Activity turned out to be 41.27%. Also, the CC50 at 72 h in data set [1] was over 500 µM.

Regarding `CC(C)OC(=O)[C@H](C)NP(=O)(CO[C@H](C)Cn1cnc2c(N)ncnc21)OCc1ccccc1Br` (stereo not given in full), the Activity with Hepatitis B virus [2] is reported as 80.75%. In addition, the CC50 at 72 h in data set [1] turned out to be 490 µM. Further, the EC50 in the data set with Hepatitis B virus [3] is 0.052 µM.

`COC(=O)C[C@H](NP(=O)(CO[C@H](C)Cn1cnc2c(N)ncnc21)OCc1ccccc1C)C(=O)OC` (stereo not given in full): the Activity in the data set on Hepatitis B virus [2] came to 69.01%. In addition, in data set [1], the CC50 at 72 h is over 500 µM. Further, in the data set with Hepatitis B virus [3], the EC50 came to 0.827 µM.

For the molecule `CC(C)OC(=O)[C@H](C)NP(=O)(CO[C@H](C)Cn1cnc2c(N)ncnc21)OCc1cccc(F)c1` (stereo not given in full), the Activity with Hepatitis B virus [2] was found to be 68.11%. Also, the CC50 at 72 h in data set [1] was over 500 µM. In addition, in the data set on Hepatitis B virus [3], the EC50 came to 0.027 µM.

In the case of `CCCCOC(=O)[C@H](C)NP(=O)(CO[C@H](C)Cn1cnc2c(N)ncnc21)OCc1ccccc1C` (stereo not given in full), the Activity in the data set with Hepatitis B virus [2] amounted to 22.62%. Also, the CC50 at 72 h in data set [1] is over 500 µM.

With `COC(=O)[C@H](C)NP(=O)(CO[C@H](C)Cn1cnc2c(N)ncnc21)OCc1ccccc1C` (stereo not given in full), in the data set on Hepatitis B virus [2], the Activity is given as 65.23%. Besides, in data set [1], the CC50 at 72 h was over 500 µM. Besides, the EC50 in the data set on Hepatitis B virus [3] came to 0.618 µM.

With `Cc1ccccc1COP(=O)(CO[C@H](C)Cn1cnc2c(N)ncnc21)N[C@@H](C)C(=O)OC(C)C` (stereo in doubt; 1a), the Activity result in the data set with Hepatitis B virus [5] was “Dde”.

Turning to `CC(C)OC(=O)[C@H](C)NP(=O)(CO[C@H](C)Cn1cnc2c(N)ncnc21)OCc1ccc(Br)cc1` (stereo not given in full), in data set [1], the CC50 at 72 h was over 500 µM.

As for `CC(C)OC(=O)[C@H](C)NP(=O)(CO[C@H](C)Cn1cnc2c(N)ncnc21)OCc1ccccc1C(F)(F)F` (stereo not given in full), the Activity with Hepatitis B virus [2] is reported as 46.76%. Further, in data set [1], the CC50 at 72 h is over 500 µM.

As to `Cc1ccccc1COP(=O)(CO[C@H](C)Cn1cnc2c(N)ncnc21)N[C@@H](C)C(=O)OC1CCCC1` (stereo not given in full), in the data set on Hepatitis B virus [2], the Activity is recorded as 41.01%. In data set [1], the 50% cytotoxic concentration (CC50) at 72 h was over 500 µM.
